Series [1] deals with clinical RSV isolates (31 A-subtypes and 29 B-subtypes). Put plainly: Cytopathic and plaque reduction assays against clinical RSV isolates. Format: cell-based. How it is done:
AK0529 (ziresovir) is a potent, selective, and orally bioavailable RSV F protein inhibitor.[9]
(§1) The EC90 value was determined in the presence of the known plasma protein binding in the CPE assay. […] To achieve a target efficacious concentration in humans, it was expected that a minimum target of 5 × EC90 value, or approximately 40 ng/mL should be attained. To maintain the effectiveness, this target Ctrough level was required to be achieved across the dosing interval.
For orientation: Damage to the host cells serves as the signal in cytopathic effect assays.

On the set-up of series [2]: method as in Study AK0529-1001. As to conditions: single doses of 100 mg and above ref Study AK0529-1001; cited from earlier work.
Series [3] relates to RSV. In words: Phase 2 study: RSV viral load by quantitative reverse-transcription PCR on nasopharyngeal swab or aspirate. Type of series: in vivo, human (infants). As to conditions: for greater reduction in median viral load than placebo: Part 2, 2 mg/kg bid, not statistically significant. From the text: This was a double‐blind, placebo‐controlled, randomized, multicenter study with the primary objective to evaluate the safety and tolerability of single and multiple oral doses of AK0529. Secondary objectives were to evaluate the effect of AK0529 on Wang Respiratory Score, to determine the effects of treatment on viral load, and to characterize the pharmacokinetics (PK) of single and multiple AK0529 doses.
The study consisted of two parts. In both parts, subjects were randomized in a 2:1 ratio to receive active treatment or placebo. Subjects were stratified by age (6 to 24 months in Cohorts 1 and 3, and 1 to <6 months in Cohorts 2 and 4).
Part 1 was a single‐dose study with a 7‐day follow‐up. The doses administered to patients in Cohort 1 included 4, 2, and 1 mg/kg. The Safety Review Committee (SRC) reviewed PK and safety data after each of the sets of three patients, before further enrollment of subjects, and recommended 0.5 and 1 mg/kg as the doses for patients in Cohort 2.
In Part 2, subjects received AK0529 or placebo over 5 days and were followed until day 14 post‐initial dose. The doses in Cohort 3 included 1 and 0.5 mg/kg bid. In Cohort 4, the doses included 2, 1 and 0.5 mg/kg bid.

Series [4] concerns RSV. Also noted: method as in PMID 31194544. As to conditions: orally administered ref 9; cited from earlier work.
In series [5] the test system is clinical RSV isolates (31 A-subtypes and 29 B-subtypes). Details: method as in PMID 31194544. As to conditions: all clinical RSV isolates (31 A-subtypes and 29 B-subtypes) ref 9; cited from earlier work.
Series [6] has as its system recombinant RSV T400I variant. Put plainly: Resistance test with recombinant RSV T400I variant.
The subject of series [7] is laboratory strains of RSV-A and RSV-B. Put plainly: Cytopathic effect (CPE) assay using Hep-2 cells. Format: cell-based, human RSV. Conditions: human respiratory syncytial virus. The procedure:
as §1

Another series deals with RSV infection. In words: Phase 2 study: Wang Respiratory Score. Type of series: in vivo, human (infants). As to conditions: for Hodges–Lehmann estimation of between-group difference in Wang Respiratory Score: Part 2, 2 mg/kg vs placebo, 96 h.

Values joined by “and” are separate entries in the source; they are usually repeats but may differ in a detail not shown here. Equal values may be shown once.

Consider `Cc1ccc2nc(N3CCS(=O)(=O)c4ccccc4C3)nc(NCC3(N)COC3)c2c1` [AK0529, ziresovir], for which the “potency against various RSV clinical isolates compared with laboratory strains” value in series [1] is recorded as “remained the same”. For the same compound, the “mean plasma concentration levels at 12 hours post-dose” value in series [2] was above 50 ng/mL. For the same compound, the “reductions in viral load relative to placebo” value in the series on RSV [3] (Part 1, 24 h after a single dose) is below 1 log10 PFUe/mL. Moreover, the “greater reduction in median viral load than placebo” value was found to be 1.25 log10 PFUe/mL in the series with RSV [3] (72 h) and 1.73 log10 PFUe/mL with RSV [3] (96 h post-dose). The antiviral efficacy entry in the series on RSV [4] was “demonstrated antiviral efficacy”. For the same compound, the “antiviral activity EC90” value in series [5] is reported as “nanomolar concentrations”. The “susceptibility of recombinant RSV T400I variant” value in series [6] is “resistance”. The minimum target trough concentration (5 × EC90) in series [7] (HEp-2, target Ctrough in humans, read-out: 5 × EC90 value (minimum target efficacious concentration)) was determined as 0.04 µg/mL. Moreover, the 90% effect concentration (EC90) (in general, the concentration needed for an effect of 90%) in series [7] (Hep-2 cells, CPE assay, read-out: EC90 of the RSV-induced reduction of cell viability (average)) was 5 nM and 0.0022 µg/mL. For the same compound, the “median Wang Respiratory Score change” value in the series with RSV infection (Part 1, single dose, baseline to 24 h, one-sided p = 0.004 combined AK0529 groups vs placebo) is on record as “decreased from baseline to 24 h in a dose‐related manner”. Also, in the series on RSV infection (Part 2, 2 mg/kg bid, baseline to 96 h, 95% CI −4.51, −2.03, placebo −2.0, one-sided p = 0.031), the “median reduction in Wang Respiratory Score from baseline” value is on record as −4.0. Moreover, the “Hodges–Lehmann estimation of between-group difference in Wang Respiratory Score” value in the series with RSV infection (full analysis population, 95% CI −2, 1) was −1; in the series on RSV infection (two cases of bacterial pneumonia excluded, 95% CI −2, 0, p = 0.009), −1. In addition, the “patients achieving disease remission (Wang Respiratory Score ≤1)” value with RSV infection (post-hoc, 2 mg/kg bid, by Day 5, 8/11 patients, placebo 31%, p 0.0412) stood at 73%.

These data come from paper PMC10368966, “Safety and efficacy of AK0529 in respiratory syncytial virus‐infected infant patients: A phase 2 proof‐of‐concept trial” (Influenza and Other Respiratory Viruses, 2023).
